Laboratory results as given in patent US20250129062A1, “AMORPHOUS SUBSTANCES, CRYSTALS, PHARMACEUTICAL COMPOSITIONS, PREPARATION METHODS AND USES OF THIOHYDANTOIN COMPOUND OR PHARMACEUTICALLY ACCEPTABLE SALT THEREOF” (SUZHOU KINTOR PHARMACEUTICALS, INC., priority 2021, published 2025).
≈ marks a conversion by molar mass, not a printed value. Like-named read-outs stand apart in the source and are kept apart here.

Key:
Assay type in all cases: physicochemical
[1] = Solubility of amorphous substance in solvent systems (supersaturated solution, oscillated 24 h at room temperature, HPLC); settings: for solubility at 24 h: thermodynamic from solid
Method: The amorphous substance of the compound of formula I was prepared into supersaturated solutions with different solvents, and oscillated under a room temperature condition (a constant temperature). After oscillating for 24 h, sampling was performed, and the content of the sample was detected by HPLC under condition 1.
Condition 1: • Chromatographic column: C18 (150 mm×4.6 mm×3.5 μm); • Mobile phase: binary mobile phase system, mobile phase A was 0.1% formic acid in water, mobile phase B was acetonitrile; • Elution time: 68 min; • Elution mode: gradient elution (in the gradient elution process, mobile phase A had the maximum volume percentage of 95% and the minimum volume percentage of 10%); • Detection wavelength: 270 nm.

[2] = Long-term stability experiment of amorphous substance; settings: for purity (HPLC): Long term
Method: (§1) Referring to ICH Q1A stability testing of new drug substances and products, the amorphous substance of the compound of formula I prepared in example 1 was subjected to a long-term stability experiment (experimental condition: 25±2° C., RH 60%=5%) and an accelerated stability experiment (experimental condition: 40±2° C., RH 75%=5%). The purity of the sample at different times was detected by HPLC under condition 2 to evaluate the physicochemical stability of the amorphous substance of the compound of formula I. The results were as shown in Table 18.
(§2) Condition 2: • Instruments: Agilent 1260; • Chromatographic column: C18 (150 mm×4.6 mm×3.5 μm); • column temperature: 45° C.; • Mobile phase: binary mobile phase system, mobile phase A was a 10 mM aqueous ammonium acetate solution (preparation method: ammonium acetate was added into purified water, and mixed evenly, and pH value was adjusted to 4.50±0.05 with acetic acid), mobile phase B was acetonitrile; • Elution mode: gradient elution, with specific procedures as shown in Table 17; • flow rate: 1.0 mL/min; • Injection volume: 5 μL; • Detection wavelength: 270 nm; • Data acquisition: OpenLab CDS2 software.

[3] = Accelerated stability experiment of amorphous substance; settings: Acceleration
Method: as §1, §2

[4] = High temperature stability experiment of amorphous substance (60° C.); settings: 60° C. in the dark
Method: The amorphous substance of the compound of formula I prepared in example 1 was stored at 60° C. in the dark for 30 days, and the purity percentages were detected by HPLC on day 0, day 5, day 10 and day 30, respectively.

Cc1ncsc1-c1ccc(CNC(=O)[C@@H]2C[C@@H](O)CN2C(=O)[C@@H](NC(=O)COCCCCOc2ccc(-c3ccc(N4C(=S)N(c5ccc(C#N)c(C(F)(F)F)c5F)C(=O)C4(C)C)cn3)cc2)C(C)(C)C)cc1
solubility at 24 h ([1]; dehydrated alcohol-propylene glycol-water solvent mixture, aqueous with cosolvent or surfactant or cyclodextrin, Dehydrated alcohol 50%-propylene glycol 10%-water 40% (w/w), read-out: Solubility): 77700 µg/mL (≈ 74.5 mM)
solubility at 24 h ([1]; dehydrated alcohol-propylene glycol-water solvent mixture, aqueous with cosolvent or surfactant or cyclodextrin, Dehydrated alcohol 50%-propylene glycol 20%-water 30% (w/w), read-out: Solubility): > 77500 µg/mL
solubility at 24 h ([1]; dehydrated alcohol-propylene glycol-water solvent mixture, aqueous with cosolvent or surfactant or cyclodextrin, Dehydrated alcohol 50%-propylene glycol 30%-water 20% (w/w), read-out: Solubility): > 69300 µg/mL
solubility at 24 h ([1]; dehydrated alcohol-propylene glycol-water solvent mixture, aqueous with cosolvent or surfactant or cyclodextrin, Dehydrated alcohol 50%-propylene glycol 40%-water 10% (w/w), read-out: Solubility): > 67800 µg/mL
solubility at 24 h ([1]; dehydrated alcohol-propylene glycol-water solvent mixture, organic solvent or mixture, Dehydrated alcohol 50%-propylene glycol 50%-water 00% (w/w), read-out: Solubility): > 96000 µg/mL
solubility at 24 h ([1]; glycerin, organic solvent or mixture, solvent: Glycerin, read-out: 24 h solubility): 440 µg/mL (≈ 0.422 mM)
solubility at 24 h ([1]; liquid paraffin, oil or lipid, solvent: Liquid paraffin, read-out: 24 h solubility): 10 µg/mL (≈ 0.00959 mM)
solubility at 24 h ([1]; oleic acid, oil or lipid, solvent: Oleic acid, read-out: 24 h solubility): 1410 µg/mL (≈ 1.35 mM)
solubility at 24 h ([1]; polyethylene glycol 400 (PEG400), organic solvent or mixture, solvent: Polyethylene glycol 400 (PEG400), read-out: 24 h solubility): 16000 µg/mL (≈ 15.4 mM)
solubility at 24 h ([1]; propylene glycol, organic solvent or mixture, solvent: Propylene glycol, read-out: 24 h solubility): 12000 µg/mL (≈ 11.5 mM)
solubility at 24 h ([1]; solvent mixture, aqueous with cosolvent or surfactant or cyclodextrin, Dehydrated alcohol 10%-PEG400 30%-water 60% (w/w), read-out: Solubility): 60 µg/mL (≈ 0.0575 mM)
solubility at 24 h ([1]; solvent mixture, aqueous with cosolvent or surfactant or cyclodextrin, Dehydrated alcohol 10%-PEG400 40%-water 50% (w/w), read-out: Solubility): 280 µg/mL (≈ 0.268 mM)
solubility at 24 h ([1]; solvent mixture, aqueous with cosolvent or surfactant or cyclodextrin, Dehydrated alcohol 10%-glycerin 10%-water 80% (w/w), read-out: Solubility): < 100 µg/mL
solubility at 24 h ([1]; solvent mixture, aqueous with cosolvent or surfactant or cyclodextrin, Dehydrated alcohol 10%-glycerin 20%-water 70% (w/w), read-out: Solubility): < 100 µg/mL
solubility at 24 h ([1]; solvent mixture, aqueous with cosolvent or surfactant or cyclodextrin, Dehydrated alcohol 10%-glycerin 30%-water 60% (w/w), read-out: Solubility): < 100 µg/mL
solubility at 24 h ([1]; solvent mixture, aqueous with cosolvent or surfactant or cyclodextrin, Dehydrated alcohol 20%-glycerin 10%-water 70% (w/w), read-out: Solubility): < 100 µg/mL
solubility at 24 h ([1]; solvent mixture, aqueous with cosolvent or surfactant or cyclodextrin, Dehydrated alcohol 20%-glycerin 20%-water 60% (w/w), read-out: Solubility): < 100 µg/mL
solubility at 24 h ([1]; solvent mixture, aqueous with cosolvent or surfactant or cyclodextrin, Dehydrated alcohol 20%-glycerin 30%-water 50% (w/w), read-out: Solubility): < 100 µg/mL
solubility at 24 h ([1]; solvent mixture, aqueous with cosolvent or surfactant or cyclodextrin, Dehydrated alcohol 20%-glycerin 40%-water 40% (w/w), read-out: Solubility): < 100 µg/mL
solubility at 24 h ([1]; solvent mixture, aqueous with cosolvent or surfactant or cyclodextrin, Dehydrated alcohol 20%-glycerin 50%-water 30% (w/w), read-out: Solubility): < 100 µg/mL
solubility at 24 h ([1]; solvent mixture, aqueous with cosolvent or surfactant or cyclodextrin, Dehydrated alcohol 30%-glycerin 10%-water 60% (w/w), read-out: Solubility): 80 µg/mL (≈ 0.0767 mM)
solubility at 24 h ([1]; solvent mixture, aqueous with cosolvent or surfactant or cyclodextrin, Dehydrated alcohol 30%-glycerin 20%-water 50% (w/w), read-out: Solubility): 140 µg/mL (≈ 0.134 mM)
solubility at 24 h ([1]; solvent mixture, aqueous with cosolvent or surfactant or cyclodextrin, Dehydrated alcohol 30%-glycerin 30%-water 40% (w/w), read-out: Solubility): 650 µg/mL (≈ 0.623 mM)
solubility at 24 h ([1]; solvent mixture, aqueous with cosolvent or surfactant or cyclodextrin, Dehydrated alcohol 30%-glycerin 40%-water 30% (w/w), read-out: Solubility): 2260 µg/mL (≈ 2.17 mM)
solubility at 24 h ([1]; solvent mixture, aqueous with cosolvent or surfactant or cyclodextrin, Dehydrated alcohol 30%-glycerin 50%-water 20% (w/w), read-out: Solubility): 4080 µg/mL (≈ 3.91 mM)
solubility at 24 h ([1]; solvent mixture, aqueous with cosolvent or surfactant or cyclodextrin, Dehydrated alcohol 40%-glycerin 10%-water 50% (w/w), read-out: Solubility): 1580 µg/mL (≈ 1.51 mM)
solubility at 24 h ([1]; solvent mixture, aqueous with cosolvent or surfactant or cyclodextrin, Dehydrated alcohol 40%-glycerin 20%-water 40% (w/w), read-out: Solubility): 3400 µg/mL (≈ 3.26 mM)
solubility at 24 h ([1]; solvent mixture, aqueous with cosolvent or surfactant or cyclodextrin, Dehydrated alcohol 40%-glycerin 30%-water 30% (w/w), read-out: Solubility): 8840 µg/mL (≈ 8.47 mM)
solubility at 24 h ([1]; solvent mixture, aqueous with cosolvent or surfactant or cyclodextrin, Dehydrated alcohol 40%-glycerin 40%-water 20% (w/w), read-out: Solubility): 14700 µg/mL (≈ 14.1 mM)
solubility at 24 h ([1]; solvent mixture, aqueous with cosolvent or surfactant or cyclodextrin, Dehydrated alcohol 40%-glycerin 50%-water 10% (w/w), read-out: Solubility): 40000 µg/mL (≈ 38.4 mM)
solubility at 24 h ([1]; solvent mixture, aqueous with cosolvent or surfactant or cyclodextrin, Dehydrated alcohol 50%-PEG400 10%-water 40% (w/w), read-out: Solubility): 25100 µg/mL (≈ 24.1 mM)
solubility at 24 h ([1]; solvent mixture, aqueous with cosolvent or surfactant or cyclodextrin, Dehydrated alcohol 50%-PEG400 20%-water 30% (w/w), read-out: Solubility): > 51500 µg/mL
solubility at 24 h ([1]; solvent mixture, aqueous with cosolvent or surfactant or cyclodextrin, Dehydrated alcohol 50%-glycerin 10%-water 40% (w/w), read-out: Solubility): 15200 µg/mL (≈ 14.5 mM)
solubility at 24 h ([1]; solvent mixture, aqueous with cosolvent or surfactant or cyclodextrin, Dehydrated alcohol 50%-glycerin 20%-water 30% (w/w), read-out: Solubility): 23900 µg/mL (≈ 22.9 mM)
solubility at 24 h ([1]; solvent mixture, aqueous with cosolvent or surfactant or cyclodextrin, Dehydrated alcohol 50%-glycerin 30%-water 20% (w/w), read-out: Solubility): > 43600 µg/mL
solubility at 24 h ([1]; solvent mixture, aqueous with cosolvent or surfactant or cyclodextrin, Dehydrated alcohol 50%-glycerin 40%-water 10% (w/w), read-out: Solubility): > 64600 µg/mL
solubility at 24 h ([1]; solvent mixture, organic solvent or mixture, Dehydrated alcohol 50%-glycerin 50%-water 00% (w/w), read-out: Solubility): > 74100 µg/mL
24 h solubility ([1]; solvent: Dehydrated alcohol): >54480 µg/mL
24 h solubility ([1]; solvent: Liquid paraffin, listed as amorphous substance of the compound of formula I): extremely low
24 h solubility ([1]; solvent: Water, listed as amorphous substance of the compound of formula I): basically insoluble
purity (HPLC) ([2]; 3 months): 99.36%
purity (HPLC) ([2]; 6 months): 99.37%
purity (HPLC) ([2]; 9 months): 99.29%
purity (HPLC) ([2]; 25±2° C., RH 60%=5%, 0 month): 99.25%
stability ([2]; long-term, accelerated and high-temperature stability experiments): excellent stability
purity (HPLC) ([3]; 1 months): 99.41%
purity (HPLC) ([3]; 3 months): 99.35%
purity (HPLC) ([3]; 6 months): 99.36%
purity (HPLC) ([3]; 40±2° C., RH 75%=5%, 0 month): 99.25%
Purity % ([4]; 0 day): 99.35%
Purity % ([4]; 5 days): 99.34%
Purity % ([4]; 10 days): 99.27%
Purity % ([4]; 30 days): 99.34%
